Measured values taken from patent US9890152B2 (Genentech, Inc., priority 2012, dated 2018).

Each molecule was assayed against T1, EGFR del746-750 T790M (Homo sapiens, UniProt P00533, DEL746-750/T790M) (assay: EGFR del746-750 T790M biochemical assay (Caliper mobility shift)). Conditions: 5 μM ATP, 30 min, room temperature; apparent Ki (Morrison) converted by Cheng-Prusoff, Km of ATP 2.1 μM; read-out: EGFR(T790M/d746-750) Ki.
T1 construct: purchased Carna Biosciences 08-528
T1 sequence (P00533 with tags, fused parts or gaps DEL746-750/T790M limits assumed): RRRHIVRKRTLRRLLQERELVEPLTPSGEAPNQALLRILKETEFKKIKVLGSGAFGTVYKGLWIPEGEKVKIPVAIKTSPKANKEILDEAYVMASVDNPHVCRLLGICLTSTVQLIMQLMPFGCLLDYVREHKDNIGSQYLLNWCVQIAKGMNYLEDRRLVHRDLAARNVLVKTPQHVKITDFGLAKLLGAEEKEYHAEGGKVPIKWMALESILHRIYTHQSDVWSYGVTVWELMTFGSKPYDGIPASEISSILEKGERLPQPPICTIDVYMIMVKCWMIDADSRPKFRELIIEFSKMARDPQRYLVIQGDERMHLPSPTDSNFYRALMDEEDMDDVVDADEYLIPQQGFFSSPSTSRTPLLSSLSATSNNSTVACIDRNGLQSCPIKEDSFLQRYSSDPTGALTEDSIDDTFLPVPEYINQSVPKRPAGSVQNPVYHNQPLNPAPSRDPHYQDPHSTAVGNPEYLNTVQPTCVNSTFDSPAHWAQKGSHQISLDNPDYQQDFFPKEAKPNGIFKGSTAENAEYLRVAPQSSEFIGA

| Structure (SMILES) | Ki |
| --- | --- |
| CCN1CCN(C(=O)c2cn(C(C)C)c3cc(Nc4ccnc(N5CCC(OC)CC5)n4)ncc23)CC1 [Example 122, (4-ethylpiperazin-1-yl)(1-isopropyl-6-((2-(4-methoxypiperidin-1-yl)pyrimidin-4-yl)amino)-1H-pyrrolo[3,2-c]pyridin-3-yl)methanone] | 100 nM |
| Cc1nc2cnc(Nc3ccnc(N4CCC5(OCCO5)C(F)C4)n3)cc2n1C(C)C (centres unmarked) [Example 653] | 34.3 nM |
| C[C@H](O)c1nc2cnc(Nc3ccnc(N4CC[C@H](O)[C@H](F)C4)n3)cc2n1[C@H](C)C(F)(F)F [Example 690] | 387 nM |
| CCC(C)n1cc(C(=O)NC2CCCOC2)c2cnc(Nc3ccnc(N4CCC(O)C(C)(C)C4)n3)cc21 (centres unmarked) [Example 374, 1-(sec-butyl)-6-((2-(4-hydroxy-3,3-dimethylpiperidin-1-yl)pyrimidin-4-yl)amino)-N-(tetrahydro-2H-pyran-3-yl)-lH-pyrrolo[3,2-c]pyridine-3-carboxamide] | 3.31 nM |
| CC(C)n1c(CO)nc2cnc(Nc3ccnc(N4CCC(C(F)(F)F)CC4)n3)cc21 [Example 512, (1-Isopropyl-6-((2-(4-(trifluoromethyl)piperidin-1-yl)pyrimidin-4-yl)amino)-imidazo[4,5-c]pyridin-2-yl)methanol] | 133 nM |
| CO[C@@H]1CCN(c2nccc(Nc3cc4c(cn3)nc([C@@H](C)O)n4[C@@H](C)C(F)(F)F)n2)C[C@@H]1F [Example 290, (R)-1-[6-[2-((3S,4R)-3-Fluoro-4-methoxypiperidin-1-yl)-pyrimidin-4-ylamino]-1-((S)-2,2,2-trifluoro-1-methylethyl)-1H-imidazo[4,5-c]pyridin-2-yl]ethanol] | 4.65 nM |
| CCC(C)n1cc(C(=O)NC2CCOCC2)c2cnc(Nc3ccnc(N4CC[C@@H](O)[C@@H](F)C4)n3)cc21 (single isomer, unassigned) [Example 324] | 2.39 nM |
| CC(C)n1c(CO)nc2cnc(Nc3ccnc(N4CC[C@@H](O)[C@H](C(F)(F)F)C4)n3)cc21 (racemic) [Example 627, (±)-(trans)-1-(4-(2-(Hydroxymethyl)-1-isopropyl-1H-imidazo[4,5-c]pyridin-6-ylamino)pyrimidin-2-yl)-3-(trifluoromethyl)piperidin-4-ol] | 1570 nM |
| CC(C)n1c(CO)nc2cnc(Nc3ccnc(N4CC[C@@](C)(O)[C@H](F)C4)n3)cc21 [Example 675] | 112 nM |
| COC1(CO)CCN(c2nccc(Nc3cc4c(cn3)nc([C@@H](C)O)n4[C@@H](C)C(F)(F)F)n2)CC1 [Example 665] | 11.5 nM |
| C[C@H](O)c1nc2cnc(Nc3ccnc(N4CC[C@@H](O)[C@@H](F)C4)n3)cc2n1[C@@H](C)C(F)(F)F [Example 685] | 26.6 nM |
| COC1CCN(c2nccc(Nc3cc4c(cn3)nc(C)n4C(C)C)n2)CC1(F)F (racemic) [Example 528, (±)-[2-(3,3-Difluoro-4-methoxypiperidin-1-yl)pyrimidin-4-yl](1-isopropyl-2-methyl-1H-imidazo[4,5-c]pyridin-6-yl)amine] | 43.3 nM |
| CCC(C)n1cc(C(=O)NC2CCOCC2)c2cnc(Nc3ccnc(N4CC[C@@H](OC)[C@@H](F)C4)n3)cc21 (single isomer, unassigned) [Example 375] | 3.41 nM |
| Cc1nc2cnc(Nc3ccnc(N4CCC(C)(O)CC4)n3)cc2n1C(C)C [Example 682] | 135 nM |
| Cc1nc2cnc(Nc3ccnc(N4Cc5cn[nH]c5C(C)(C)C4)n3)cc2n1C(C)C [Example 111, N-(2-(7,7-dimethyl-6,7-dihydro-1H-pyrazolo[4,3-c]pyridin-5(4H)-yl)pyrimidin-4-yl)-1-isopropyl-2-methyl-1H-imidazo[4,5-c]pyridin-6-amine] | 18.9 nM |
| CO[C@H]1CCN(c2nccc(Nc3cc4c(cn3)nc(CO)n4C(C)C)n2)C[C@H]1C(F)(F)F (racemic) [Example 628, (1-Isopropyl-6-(2-((±)-(cis)-4-methoxy-3-(trifluoromethyl)piperidin-1-yl)pyrimidin-4-ylamino)-1H-imidazo[4,5-c]pyridin-2-yl)methanol] | 1190 nM |
| CC(C)n1c(CO)nc2cnc(Nc3ccnc(N4CC[C@](C)(O)[C@H](F)C4)n3)cc21 (racemic) [Example 619, (3RS,4SR)-3-Fluoro-1-[4-(2-hydroxymethyl-1-isopropyl-1H-imidazo[4,5-c]pyridin-6-ylamino)pyrimidin-2-yl]-4-methylpiperidin-4-ol] | 146 nM |
| COC1CCN(c2nccc(Nc3cc4c(cn3)nc3n4C(C)(C)CO3)n2)CC1 [Example 532, N-(2-(4-methoxypiperidin-1-yl)pyrimidin-4-yl)-3,3-dimethyl-2,3-dihydrooxazolo[3′,2′:1,2]imidazo [4,5-c]pyridin-6-amine] | 519 nM |
| CC[C@H](C)n1cc(C(=O)NC2CCOCC2)c2cnc(Nc3ccnc(N4CC[C@H](OC)[C@H](F)C4)n3)cc21 (single isomer, unassigned) [Example 340] | 3.33 nM |
| COC1CCN(c2nccc(Nc3cc4c(cn3)nc(C)n4C(C)CC#N)n2)CC1 (centres unmarked) [Example 349, 3-(6-((2-(4-Methoxypiperidin-1-yl)pyrimidin-4-yl)amino)-2-methyl-1H-imidazo[4,5-c]pyridin-1-yl)butanenitrile] | 692 nM |
| CO[C@H]1CCN(c2nccc(Nc3cc4c(cn3)nc([C@@H](C)O)n4[C@@H](C)C(F)(F)F)n2)C[C@H]1F [Example 288, (R)-1-[6-[2-((3R,4S)-3-Fluoro-4-methoxypiperidin-1-yl)-pyrimidin-4-ylamino]-1-((S)-2,2,2-trifluoro-1-methylethyl)-1H-imidazo[4,5-c]pyridin-2-yl]ethanol] | 4 nM |
| C[C@H](n1c([C@@H](C)O)nc2cnc(Nc3ccnc(N4CCC(C)(O)CC4)n3)cc21)C(F)(F)F [Example 683] | 13.2 nM |

Results, then the molecule that gave them:

| Ki | Structure (SMILES) |
| --- | --- |
| 1160 nM | Cc1nc2cnc(Nc3ccnc(NCC4CCS(=O)(=O)C4)n3)cc2n1C(C)C (centres unmarked) [Example 652] |
| 19.6 nM | CO[C@H]1CCN(c2nccc(Nc3cc4c(cn3)c(-c3nn(CCO)cc3C)cn4C(C)C)n2)C[C@H]1F [Example 348, 2-(3-(6-((2-((3R,4S)-3-Fluoro-4-methoxypiperidin-1-yl)pyrimidin-4-yl)amino)-1-isopropyl-1H-pyrrolo[3,2-c]pyridin-3-yl)-4-methyl-1H-pyrazol-1-yl)ethanol] |
| 5.77 nM | Cc1nc2cnc(Nc3ccnc(-c4cnn(S(=O)(=O)C5CNC5)c4)n3)cc2n1C(C)C [Example 467, N-(2-(1-(azetidin-3-ylsulfonyl)-1H-pyrazol-4-yl)pyrimidin-4-yl)-1-isopropyl-2-methyl-1H-imidazo[4,5-c]pyridin-6-amine] |
| 16.9 nM | CC1CCC(n2c(CO)nc3cnc(Nc4ccnc(-c5cnn(S(=O)(=O)C6CC6)c5)n4)cc32)C1 (centres unmarked) [Example 697] |
| 1.82 nM | Cc1cn(CCO)nc1-c1cn(C(C)C)c2cc(Nc3ccnc(-c4cnn(S(=O)(=O)C5CC5)c4)n3)ncc12 [Example 253, 2-(3-(6-(2-(1-(Cyclopropylsulfonyl)-1H-pyrazol-4-yl)pyrimidin-4-ylamino)-1-isopropyl-1H-pyrrolo[3,2-c]pyridin-3-yl)-4-methyl-1H-pyrazol-1-yl)ethanol] |
| 273 nM | CC(C)n1c(CO)nc2cnc(Nc3ccnc(N4CCCCC4CO)n3)cc21 (centres unmarked) [Example 670] |
| 12.6 nM | CCc1ncc(-c2nccc(Nc3cc4c(cn3)nc(CO)n4C(C)C)n2)s1 [Example 671] |
| 171 nM | CC(C)n1c(CO)nc2cnc(Nc3ccnc(OCC(C)(C)S(C)(=O)=O)n3)cc21 [Example 660] |
| 900 nM | CC(C)n1c(CO)nc2cnc(Nc3ccnc(N4CCC(S(C)(=O)=O)CC4)n3)cc21 [Example 661] |
| 1.9 nM | CC(C)n1cnc2cnc(Nc3ccnc(-c4cnn(S(=O)(=O)C5CC5)c4)n3)cc21 [Example 97, N-(2-(1-(cyclopropylsulfonyl)-1H-pyrazol-4-yl)pyrimidin-4-yl)-1-isopropyl-1H-imidazo[4,5-c]pyridin-6-amine] |
| 8.2 nM | Cc1nc2cnc(Nc3ccnc(N4CCc5[nH]ncc5C4)n3)cc2n1C(C)C [Example 46, N-(2-(6,7-Dihydro-1H-pyrazolo[4,3-c]pyridin-5(4H)-yl)pyrimidin-4-yl)-1-isopropyl-2-methyl-1H-imidazo[4,5-c]pyridin-6-amine] |
| 14 nM | CC(C)n1c([C@H](C)O)nc2cnc(Nc3ccnc(-c4cnn(S(=O)(=O)C5CC5)c4)n3)cc21 [Example 562, (S)-1-{6-[2-(1-Cyclopropanesulfonyl-1H-pyrazol-4-yl)pyrimidin-4-ylamino]-1-isopropyl-1H-imidazo[4,5-c]pyridin-2-yl}ethanol] |
| 2.37 nM | CCC(C)n1cc(C(=O)NC2CCC(O)CC2)c2cnc(Nc3ccnc(-c4cnn(S(=O)(=O)C5CC5)c4)n3)cc21 (centres unmarked) [Example 705] |
| 1.18 nM | Cc1cc(-c2cn(C(C)C)c3cc(Nc4ccnc(-c5cnn(S(=O)(=O)C6CC6)c5)n4)ncc23)n(CCO)n1 [Example 436, 2-(5-(6-(2-(1-(cyclopropylsulfonyl)-1H-pyrazol-4-yl)pyrimidin-4-ylamino)-1-isopropyl-1H-pyrrolo[3,2-c]pyridin-3-yl)-3-methyl-1H-pyrazol-1-yl)ethanol] |
| 75.8 nM | Cc1nc2cnc(Nc3ccnc(N4CC[C@H](O)C[C@@H]4C)n3)cc2n1C(C)C [Example 600] |
| 7.67 nM | CC(CC(F)(F)F)n1c(CO)nc2cnc(Nc3ccnc(-c4cnn(S(=O)(=O)C5CC5)c4)n3)cc21 (centres unmarked) [Example 696] |
| 2.37 nM | CC[C@@H](C)n1c([C@@H](C)O)nc2cnc(Nc3ccnc(-c4cnn(S(=O)(=O)CC)c4)n3)cc21 [Example 281, (R)-1-{1-((R)-sec-Butyl)-6-[2-(1-ethanesulfonyl-1H-pyrazol-4-yl)-pyrimidin-4-ylamino]-1H-imidazo[4,5-c]pyridin-2-yl}ethanol] |
| 3.5 nM | Cc1nc2cnc(Nc3ccnc(-c4cnn(S(C)(=O)=O)c4)n3)cc2n1C(C)C [Example 91, 1-isopropyl-2-methyl-N-(2-(1-(methylsulfonyl)-1H-pyrazol-4-yl)pyrimidin-4-yl)-1H-imidazo[4,5-c]pyridin-6-amine] |
| 2.66 nM | COC1CCN(c2nccc(Nc3cc4c(cn3)c(-c3cn[nH]c3)cn4C(C)C)n2)CC1 [Example 401, 1-isopropyl-N-(2-(4-methoxypiperidin-1-yl)pyrimidin-4-yl)-3-(1H-pyrazol-4-yl)-1H-pyrrolo[3,2-c]pyridin-6-amine] |
